Data taken from PubChem BioAssay (NCI).
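Dose response: 5 concentrations. Exposure: 48 h. Format: 96-well plates. Endpoint: linear interpolation; highest concentration if not reached. GI50 is the concentration that inhibits growth by half. TGI: concentration producing complete growth inhibition.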

Legend:
Assay in all cases: growth of human tumour cells (NCI), 48 h
[1] = tested on: 786-0 renal
[2] = tested on: A498 renal
[3] = tested on: A549 NSCLC
[4] = tested on: ACHN renal
[5] = tested on: BT-549 breast
[6] = tested on: CAKI-1 renal
[7] = tested on: CCRF-CEM leukemia
[8] = tested on: COLO 205 colon
[9] = tested on: DU-145 prostate
[10] = tested on: EKVX NSCLC
[11] = tested on: HCC-2998 colon
[12] = tested on: HCT-116 colon
[13] = tested on: HCT-15 colon
[14] = tested on: HL-60(TB) leukemia
[15] = tested on: HOP-62 NSCLC
[16] = tested on: HOP-92 NSCLC
[17] = tested on: HS 578T breast
[18] = tested on: HT29 colon
[19] = tested on: IGROV1 ovarian
[20] = tested on: K-562 leukemia
[21] = tested on: KM12 colon
[22] = tested on: LOX IMVI melanoma
[23] = tested on: M14 melanoma
[24] = tested on: MALME-3M melanoma
[25] = tested on: MCF7 breast
[26] = tested on: MDA-MB-231 breast
[27] = tested on: MDA-MB-435
[28] = tested on: MOLT-4 leukemia
[29] = tested on: NCI-H226 lung
[30] = tested on: NCI-H23 lung
[31] = tested on: NCI-H460 lung
[32] = tested on: NCI-H522 lung
[33] = tested on: NCI/ADR-RES ovarian
[34] = tested on: OVCAR-3 ovarian
[35] = tested on: OVCAR-4 ovarian
[36] = tested on: OVCAR-5 ovarian
[37] = tested on: OVCAR-8 ovarian
[38] = tested on: PC-3 prostate
[39] = tested on: RPMI-8226 leukemia
[40] = tested on: RXF 393 renal
[41] = tested on: SF-268 CNS
[42] = tested on: SF-295 CNS
[43] = tested on: SF-539 CNS
[44] = tested on: SK-MEL-2 melanoma
[45] = tested on: SK-MEL-28 melanoma
[46] = tested on: SK-MEL-5 melanoma
[47] = tested on: SK-OV-3 ovarian
[48] = tested on: SN12C renal
[49] = tested on: SNB-19 CNS
[50] = tested on: SNB-75 CNS
[51] = tested on: SR leukemia
[52] = tested on: SW-620 colon
[53] = tested on: T-47D breast
[54] = tested on: TK-10 renal
[55] = tested on: U251 CNS
[56] = tested on: UACC-257 melanoma
[57] = tested on: UACC-62 melanoma
[58] = tested on: UO-31 renal

NCCCCCn1c2c(c3ccccc3c1=O)C(=O)c1ccccc1-2
GI50 [1]: 0.274 µM | TGI [1]: 2.01 µM | GI50 [2]: 1.43 µM | TGI [2]: 4.07 µM | GI50 [3]: 0.452 µM | GI50 [4]: 0.19 µM | TGI [4]: 0.909 µM | GI50 [5]: 1.57 µM | TGI [5]: 4.6 µM | GI50 [6]: 0.749 µM | TGI [6]: 14 µM | GI50 [7]: 0.106 µM | TGI [7]: 1.16 µM | GI50 [8]: 0.639 µM | TGI [8]: 3.27 µM | GI50 [9]: 0.266 µM | GI50 [10]: 4.08 µM | TGI [10]: 17.1 µM | GI50 [11]: 0.529 µM | TGI [11]: 2.63 µM | GI50 [12]: 0.151 µM | TGI [12]: 3.91 µM | GI50 [13]: 0.163 µM | TGI [13]: 2.34 µM | GI50 [14]: 0.159 µM | TGI [14]: 0.744 µM | GI50 [15]: 0.221 µM | TGI [15]: 2.19 µM | GI50 [16]: 0.435 µM | TGI [16]: 3.72 µM | GI50 [17]: 1.77 µM | TGI [17]: 12.9 µM | GI50 [18]: 0.246 µM | TGI [18]: 4.66 µM | GI50 [19]: 0.241 µM | TGI [19]: 2.75 µM | GI50 [20]: 0.195 µM | TGI [20]: 2.47 µM | GI50 [21]: 0.284 µM | TGI [21]: 2.48 µM | GI50 [22]: 0.221 µM | TGI [22]: 1.76 µM | GI50 [23]: 1.41 µM | TGI [23]: 3.22 µM | GI50 [24]: 1.13 µM | TGI [24]: 3.17 µM | GI50 [25]: 0.0696 µM | TGI [25]: 3.49 µM | GI50 [26]: 1.76 µM | TGI [26]: 6.09 µM | GI50 [27]: 1.36 µM | TGI [27]: 3.62 µM | GI50 [28]: 0.0285 µM | TGI [28]: 1.74 µM | GI50 [29]: 0.479 µM | TGI [29]: 2.16 µM | GI50 [30]: 0.314 µM | TGI [30]: 1.47 µM | GI50 [31]: 0.0537 µM | TGI [31]: 1.02 µM | GI50 [32]: 0.215 µM | TGI [32]: 1.69 µM | GI50 [33]: 1.41 µM | TGI [33]: 4.86 µM | GI50 [34]: 1.1 µM | TGI [34]: 6.74 µM | GI50 [35]: 1.54 µM | TGI [35]: 5.58 µM | GI50 [36]: 0.999 µM | TGI [36]: 3.84 µM | GI50 [37]: 0.497 µM | TGI [37]: 10.5 µM | GI50 [38]: 1.23 µM | TGI [38]: 5.37 µM | GI50 [39]: 0.222 µM | TGI [39]: 1.51 µM | GI50 [40]: 2.83 µM | TGI [40]: > 26.3 µM | GI50 [41]: 0.321 µM | TGI [41]: 3.06 µM | GI50 [42]: 0.527 µM | TGI [42]: 6.38 µM | GI50 [43]: 0.864 µM | TGI [43]: 2.48 µM | GI50 [44]: 1.41 µM | TGI [44]: 2.96 µM | GI50 [45]: 1.46 µM | TGI [45]: 3.16 µM | GI50 [46]: 0.617 µM | TGI [46]: 2.05 µM | GI50 [47]: 0.531 µM | TGI [47]: 2.16 µM | GI50 [48]: 0.305 µM | TGI [48]: 3.97 µM | GI50 [49]: 0.465 µM | TGI [49]: 7.66 µM | GI50 [50]: 1.2 µM | TGI [50]: 6.92 µM | GI50 [51]: 0.035 µM | TGI [51]: 0.726 µM | GI50 [52]: 0.166 µM | TGI [52]: 4.09 µM | GI50 [53]: 0.451 µM | TGI [53]: 2.14 µM | GI50 [54]: 0.714 µM | TGI [54]: 7.08 µM | GI50 [55]: 0.232 µM | TGI [55]: 4.11 µM | GI50 [56]: 2 µM | TGI [56]: 4.7 µM | GI50 [57]: 1.42 µM | TGI [57]: 3.37 µM | GI50 [58]: 0.238 µM | TGI [58]: 1.53 µM

O=c1ncc(I)cn1C1CC(O)C(CO)O1 (stereo not given)
GI50 [1]: 3100 µM | TGI [1]: > 3250 µM | TGI [2]: > 3250 µM | GI50 [3]: 2460 µM | TGI [3]: > 3250 µM | GI50 [4]: 3120 µM | TGI [4]: > 3250 µM | GI50 [5]: 1510 µM | TGI [5]: > 3250 µM | GI50 [6]: 1470 µM | TGI [6]: > 3250 µM | GI50 [7]: 709 µM | TGI [7]: > 3250 µM | GI50 [8]: 1210 µM | TGI [8]: > 3250 µM | GI50 [9]: 1530 µM | TGI [9]: > 3250 µM | GI50 [10]: > 3250 µM | TGI [10]: > 3250 µM | GI50 [11]: 2910 µM | TGI [11]: > 3250 µM | GI50 [12]: 1310 µM | TGI [12]: > 3250 µM | GI50 [13]: 1680 µM | TGI [13]: > 3250 µM | GI50 [14]: 613 µM | TGI [14]: > 3250 µM | GI50 [15]: 2940 µM | TGI [15]: > 3250 µM | GI50 [16]: > 3250 µM | TGI [16]: > 3250 µM | GI50 [17]: > 3250 µM | TGI [17]: > 3250 µM | GI50 [18]: 1830 µM | TGI [18]: > 3250 µM | GI50 [20]: 1220 µM | TGI [20]: > 3250 µM | GI50 [21]: 1740 µM | TGI [21]: > 3250 µM | GI50 [22]: 982 µM | TGI [22]: > 3250 µM | GI50 [23]: 1110 µM | TGI [23]: > 3250 µM | GI50 [24]: > 3250 µM | TGI [24]: > 3250 µM | GI50 [25]: 1430 µM | TGI [25]: > 3250 µM | GI50 [26]: > 3250 µM | TGI [26]: > 3250 µM | GI50 [27]: 1020 µM | TGI [27]: > 3250 µM | GI50 [28]: 1170 µM | TGI [28]: > 3250 µM | GI50 [29]: > 3250 µM | TGI [29]: > 3250 µM | GI50 [30]: 1620 µM | TGI [30]: > 3250 µM | GI50 [31]: 1540 µM | TGI [31]: > 3250 µM | GI50 [32]: 668 µM | TGI [32]: 1250 µM | GI50 [33]: 1750 µM | TGI [33]: > 3250 µM | GI50 [34]: 1070 µM | TGI [34]: > 3250 µM | GI50 [35]: 1510 µM | TGI [35]: > 3250 µM | GI50 [36]: > 3250 µM | TGI [36]: > 3250 µM | GI50 [37]: 2610 µM | TGI [37]: > 3250 µM | GI50 [38]: > 3250 µM | TGI [38]: > 3250 µM | GI50 [39]: > 3250 µM | TGI [39]: > 3250 µM | GI50 [40]: > 3250 µM | TGI [40]: > 3250 µM | GI50 [41]: 2110 µM | TGI [41]: > 3250 µM | GI50 [43]: 2360 µM | TGI [43]: > 3250 µM | GI50 [44]: > 3250 µM | TGI [44]: > 3250 µM | GI50 [45]: 3150 µM | TGI [45]: > 3250 µM | GI50 [46]: 2000 µM | TGI [46]: > 3250 µM | GI50 [47]: 2100 µM | TGI [47]: > 3250 µM | GI50 [48]: 2710 µM | TGI [48]: > 3250 µM | GI50 [49]: > 3250 µM | TGI [49]: > 3250 µM | GI50 [50]: > 3250 µM | TGI [50]: > 3250 µM | GI50 [51]: 1170 µM | TGI [51]: > 3250 µM | GI50 [52]: 1130 µM | TGI [52]: > 3250 µM | GI50 [53]: 2220 µM | TGI [53]: > 3250 µM | GI50 [54]: > 3250 µM | TGI [54]: > 3250 µM | GI50 [55]: 1160 µM | TGI [55]: > 3250 µM | GI50 [56]: > 3250 µM | TGI [56]: > 3250 µM | GI50 [57]: 1480 µM | TGI [57]: > 3250 µM | GI50 [58]: 711 µM | TGI [58]: 1760 µM
